The source of these data is patent US10781212B2, “2,6-diamino pyridine compounds” (Eli Lilly and Company, priority 2018, dated 2020).

As a reminder, the clearance is the rate of elimination divided by the concentration. Low readings indicate inefficient removal, high ones efficient removal. By half-life is commonly meant how long it takes for the measured level to halve. High values mean slow decline, low ones rapid decline. The term bioavailability denotes the share of a dose that reaches the circulation, judged against a reference dose that is usually intravenous. A higher bioavailability goes with good availability. The term pIC50 denotes −log10 of the IC50, conventionally taken in molar units.

pIC50: −log10 of the molar value.

The test system of one series is human hepatocytes. In words: Intrinsic clearance in human hepatocytes (-/+ABT). The class given is in vitro ADME. Particulars: with vs without ABT (pan-CYP450 inhibitor). As for the experimental part:
Intrinsic Clearance in Human Hepatocytes (−/+ABT)
This method is intended to identify in vitro metabolic clearance by substrate depletion in hepatocytes. Incubation in the presence and absence of ABT, a pan-CYP450 enzyme inhibitor, is used to estimate the contribution of CYP-mediated metabolism. Cryopreserved human hepatocytes are thawed at 37° C., spun down and reconstituted in hepatocyte maintenance media to a density of 1×10^6 viable cells/mL. To a pre-warmed 96-well plate, 196 μL of the hepatocyte suspension is added to each well. The cells are pre-incubated with and without ABT as follows: for ABT pre-incubation, 2 μL of 100 mM ABT solution is added (2 μL of media without ABT is added to control samples), and the plate incubated at 37° C. for 30 min under constant shaking (˜600 rpm). Following, 2 μL of a 30 μM stock solution of test article is added and at 0, 15, 30, 60, 120, 240 min 20 μL aliquots are taken and quenched by transfer to ACN containing internal standard. Following centrifugation at 4000 rpm for 30 min, supernatant concentrations are determined by LC-MS/MS. Clearance is calculated from the slope of % compound remaining over time.

Series [1] is described as follows: Pharmacokinetics in Beagle dogs. The class given is in vivo. As for the experimental part: (§1) Liquid Chromatograph with Tandem Mass Spectrometry (LC-MS/MS) Method for Pharmacokinetic Assays: Samples are extracted using a protein precipitation by adding 180 μL of MeOH:ACN (1:1, v/v) containing an internal standard and 25 μL (rodent samples) or 50 μL(non-rodent samples) of plasma. Samples are then diluted with Methanol:Water (1:1, v/v) to get concentrations within standard curve range. Diluted samples are analyzed by LC-MS/MS using a Sciex API 4000 triple quadrupole mass spectrometer (Applied Biosystems/MDS; Foster City, Calif.) equipped with a TurbolonSpray interface, and operated in positive ion mode. The analytes are chromatographically separated using a Thermo Betasil C18 5 um 20×2.1 mm Javelin column (rodent samples) or Advantage ECHIELON C18 4 um 20 mm×2.1 mm ID column (non-rodent samples). LC conditions are Water/1 M ammonium bicarbonate, (2000:10, v/v) (Mobile Phase A), and MeOH/1 M ammonium bicarbonate, (2000:10, v/v) (Mobile Phase B).
Example 1 is administered by a single oral (PO; 3 mg/kg; volume of 2 mL/kg) or intravenous (IV; 1 mg/kg; volume of 1 mL/kg) dose in vehicle. Blood is collected from each animal at 0, 0.03 (IV group only), 0.08 (IV), 0.25, 0.5, 1, 2, 4, 8, 12, 24, 32 (IV), 48 (IV), and 72 (IV) h post-dosage. The plasma concentrations of Example 1 are determined by a LC-MS/MS method as described above.

A short description of series [2]: Pharmacokinetics in OATP1A/1B knockout mice. The class given is in vivo. Particulars: OATP1A/1B knockout (Taconic #10707), mouse, IV 1 mg/kg. As to the method: as §1
(§2) Example 1 is administered by a single intravenous (IV; 1 mg/kg; volume of 1 mL/kg) dose in vehicle. Blood is collected from each animal at 0, 0.08, 0.25, 0.5, 1, 2, 4, 8, 12, and 24 h post-dosage. Liver, spleen, and pancreas is collected, weighed and perfused at 24 h post-dosage. The plasma and tissue concentrations of Example 1 are determined by a LC-MS/MS method as described above.

A further series addresses OATP1B1 (Homo sapiens (Human), UniProt Q9Y6L6). Nature of the series: Inhibition of OATP1B1 (rosuvastatin uptake). The conditions noted are these: rosuvastatin 400 nM substrate, 30 min pre-incubation. The class given is cell-based. As to the method: (§3) Inhibition of OATP1B1 and OATP1B3
(§4) The OATP1B1, OATP1B3, and vector control (VC) cells are grown in 5% CO2 at 37° C. in a humidified atmosphere in DMEM supplemented with 10% FBS, 50 μg/mL gentamycin, and 5 μg/mL blasticidin. The cells are seeded in 24-well BioCoat Poly-D-Lysine plates. The cells are treated with 5 mM sodium butyrate in supplemented DMEM 24 h prior to experimentation. Cell cultures are washed twice with pre-warmed PBS prior to experimentation. After washing, all cell types are incubated for 30 min at 37° C. in 200 μL buffer, buffer plus varying concentration of test article, or with appropriate positive control inhibitor. Based upon preliminary data concentrations from 0.025 to 12.5 μM for OATP1B1 and 0.20 to 100 μM for OATP1B3 (nominal) are tested. At the start of the preincubation, 50 µL of buffer is removed for determination of in-well test article concentrations by LC-MS/MS. Following the pre-incubation period, the buffer is removed. […] Samples are taken from each well from plates to count for radioactivity and protein concentration in each well is determined by bicinchoninic acid method. IC50 values are determined by fitting the data using GraphPad Prism. Nominal concentrations are converted to measured concentrations prior to fitting.

A short description of series [3]: Pharmacokinetics in FVB wild type mice. The class given is in vivo. The conditions noted are these: mouse, IV 1 mg/kg. As to the method:
as §1, §2

Series [4] in a line: Elimination pathways in bile duct cannulated Beagle dogs. The class given is in vivo. The conditions noted are these: IV 1 mg/kg. As for the experimental part:
as §1
Example 1 is administered by a single intravenous (IV; 1 mg/kg; volume of 1 mL/kg) dose in vehicle. Blood is collected from each animal at 0, 0.033, 0.083, 0.25, 0.5, 1, 2, 4, 8, 12, 24, 32, 48 and 72 h post-dosage. Bile is collected from each animal at 1, 2, 3, 4, 5, 6, 12, 18, 24, 32, 48 and 72 h post-dosage. Urine is collected at 12, 24, 48, and 72 h and feces collected at 24, 48, and 72 h post-dosage. The plasma, bile, urine and feces concentrations of Example 1 are determined by a LC-MS/MS method as described above.

The next series deals with OATP1B3 (Homo sapiens (Human), UniProt Q9NPD5). In words: Inhibition of OATP1B3 (rosuvastatin uptake). The class given is cell-based. The conditions noted are these: rosuvastatin 400 nM substrate, 30 min pre-incubation. As to the method:
as §3, §4

A short description of series [5]: Pharmacokinetics in cynomolgus monkeys. The class given is in vivo. Particulars: cynomolgus monkey, plasma, PO 10 mg/kg. As for the experimental part: as §1
The compounds is administered by a single oral (PO; 10 mg/kg; volume of 5 mL/kg) dose in vehicle. Blood is collected from each animal at 0, 0.25, 0.5, 1, 2, 4, 8, 12, 24, 32, 48, and 72 h post-dosage. The plasma concentrations of Example 1 are determined by a LC-MS/MS method as described above.

For a further series, the target named is human KHK-C (Homo sapiens (Human), UniProt P50053). Nature of the series: KHK enzyme activity assay, human KHK-C. Particulars: fructose 250 μM, ATP 150 μM; read-out: hKHK-C IC50. The class given is biochemical. As for the experimental part: (§5) KHK Enzyme Activity Assay for Human KHK-C and Human KHK-A
human KHK-C, sequence (P50053 whole entry, canonical isoform): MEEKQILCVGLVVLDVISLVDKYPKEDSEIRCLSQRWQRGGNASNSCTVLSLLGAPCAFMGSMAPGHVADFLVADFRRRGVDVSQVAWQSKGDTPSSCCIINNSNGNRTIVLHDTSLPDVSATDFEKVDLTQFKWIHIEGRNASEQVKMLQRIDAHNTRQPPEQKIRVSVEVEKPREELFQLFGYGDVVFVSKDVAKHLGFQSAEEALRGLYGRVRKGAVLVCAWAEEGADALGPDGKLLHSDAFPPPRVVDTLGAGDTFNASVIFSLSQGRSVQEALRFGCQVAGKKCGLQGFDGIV
(§6) Enzyme is prepared in assay buffer [50 mM 4-(2-hydroxyethyl)piperazine-1-ethanesulfonic acid (HEPES), 10 mM potassium chloride, 100 mM magnesium chloride, 2 mM tris(2-carboxyethyl)phosphine (TCEP), 0.01% n-octyl glucoside] and incubated with compounds at RT for 15 min. The reaction is carried out in 100 μL volumes containing substrate concentrations of fructose (250 μM for KHK-C assay and 1.25 mM for KHK-A assay) and ATP (150 μM for both isoforms); which are further incubated at RT for 20 min. The reaction is then halted by the addition of stop buffer; consisting of 0.2% formic acid and 1 μg/ml ^13C6-fructose-6-phosphate (^13C6-F6P) internal standard. […] RapidFire MS Analysis for Quantitation of F1P: […]
(§7) Solvent A, used for sample loading and washing, is 6 mM octylamine (Acros Organics 129495000) brought to pH 5.0 using acetic acid. […] Samples are sequentially analyzed by aspirating 10 μL onto the collection loop under vacuum directly from multiwell plates. […]
(§8) The triple quadrupole mass spectrometer is equipped with an ESI source and analytes are monitored using selected reaction monitoring (SRM) in negative mode [M−H]−. F1P is monitored at m/z 259.02/96.9 and ^13C6-fructose-6-phosphate is monitored at m/z 264.99/97. The area ratio values for F1P is calculated using ^13C6-fructose-6-phosphate as internal standard.

The next series deals with human KHK-A (Homo sapiens (Human), UniProt P50053). Nature of the series: KHK enzyme activity assay, human KHK-A. The class given is biochemical. Particulars: fructose 1.25 mM, ATP 150 μM; read-out: hKHK-A IC50. As for the experimental part:
as §5, §6, §7, §8

Where [6] appears, read: liver at 24 h, read-out: mean liver unbound partition coefficient (Kpuu).
[7] abbreviates: plasma, 1 mg/kg, heading: mean clearance.
[8] abbreviates: plasma, read-out: volume of distribution.

human KHK-A, sequence (P50053 other isoform, or with tags, fused parts or gaps): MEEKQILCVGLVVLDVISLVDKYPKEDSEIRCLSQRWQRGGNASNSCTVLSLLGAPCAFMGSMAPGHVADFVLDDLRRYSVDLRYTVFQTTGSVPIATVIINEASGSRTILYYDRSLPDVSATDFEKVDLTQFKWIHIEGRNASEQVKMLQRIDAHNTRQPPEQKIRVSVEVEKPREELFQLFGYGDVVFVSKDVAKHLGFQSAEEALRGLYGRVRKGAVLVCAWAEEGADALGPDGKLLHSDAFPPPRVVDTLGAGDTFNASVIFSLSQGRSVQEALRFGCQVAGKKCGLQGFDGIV
OATP1B1, sequence (Q9Y6L6 whole entry, species assumed): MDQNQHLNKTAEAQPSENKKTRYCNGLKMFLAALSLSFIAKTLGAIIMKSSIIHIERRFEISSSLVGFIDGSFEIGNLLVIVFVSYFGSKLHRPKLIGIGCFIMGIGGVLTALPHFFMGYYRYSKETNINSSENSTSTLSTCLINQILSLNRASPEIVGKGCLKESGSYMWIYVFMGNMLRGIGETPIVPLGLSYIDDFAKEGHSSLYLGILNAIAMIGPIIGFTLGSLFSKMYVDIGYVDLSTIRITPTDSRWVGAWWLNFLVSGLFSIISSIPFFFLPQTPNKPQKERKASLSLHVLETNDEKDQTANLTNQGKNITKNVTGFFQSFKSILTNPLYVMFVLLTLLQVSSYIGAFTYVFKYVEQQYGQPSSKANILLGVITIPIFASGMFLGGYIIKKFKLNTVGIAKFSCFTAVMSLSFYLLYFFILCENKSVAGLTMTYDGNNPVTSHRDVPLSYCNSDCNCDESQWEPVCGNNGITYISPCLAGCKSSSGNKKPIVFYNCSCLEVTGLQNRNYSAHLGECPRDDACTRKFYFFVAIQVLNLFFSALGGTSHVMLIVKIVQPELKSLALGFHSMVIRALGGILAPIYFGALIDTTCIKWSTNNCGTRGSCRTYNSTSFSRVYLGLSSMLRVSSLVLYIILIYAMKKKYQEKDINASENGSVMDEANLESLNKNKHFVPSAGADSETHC
OATP1B3, sequence (Q9NPD5 whole entry, species assumed): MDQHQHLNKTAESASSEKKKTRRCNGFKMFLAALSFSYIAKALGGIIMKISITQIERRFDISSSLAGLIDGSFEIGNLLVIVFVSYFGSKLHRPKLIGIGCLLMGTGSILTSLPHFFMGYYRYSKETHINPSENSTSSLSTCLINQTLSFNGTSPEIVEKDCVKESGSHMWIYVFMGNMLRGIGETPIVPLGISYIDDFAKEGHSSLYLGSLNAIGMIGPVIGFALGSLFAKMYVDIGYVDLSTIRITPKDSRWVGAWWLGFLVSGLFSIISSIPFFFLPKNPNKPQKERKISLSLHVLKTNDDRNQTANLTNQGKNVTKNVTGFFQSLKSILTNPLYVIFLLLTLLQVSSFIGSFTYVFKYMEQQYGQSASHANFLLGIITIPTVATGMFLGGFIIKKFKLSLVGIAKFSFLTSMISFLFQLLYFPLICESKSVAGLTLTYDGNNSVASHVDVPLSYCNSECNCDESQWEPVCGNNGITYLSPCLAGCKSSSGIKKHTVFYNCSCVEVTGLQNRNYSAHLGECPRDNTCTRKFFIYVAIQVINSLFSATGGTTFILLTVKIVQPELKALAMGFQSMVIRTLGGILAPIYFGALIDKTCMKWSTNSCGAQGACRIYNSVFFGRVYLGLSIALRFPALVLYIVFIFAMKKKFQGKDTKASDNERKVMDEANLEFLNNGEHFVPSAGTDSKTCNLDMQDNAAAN

Turning to `C[C@H]1CCN1c1nc(N2CC[C@H](CC(=O)O)C2)cc(C(F)(F)F)c1C#N` [Example 1, 2-[(3R)-1-[5-cyano-6-[(2S)-2-methylazetidin-1-yl]-4-(trifluoromethyl)-2-pyridyl]pyrrolidin-3-yl]acetic Acid], the “inhibition of clearance by ABT” value with human hepatocytes is on record as around 12%. The mean half-life in series [1] (IV 1 mg/kg) came to 7.4 h. Also, the clearance was 2.52 mL/min/kg in series [1] (dog, plasma, 1 mg/kg, heading: mean clearance, IV 1 mg/kg); 1.34 mL/min/kg in [2] (setting [7]); 6.91 mL/min/kg in [3] (setting [7]); 4.69 mL/min/kg in series [4] (dog, plasma, 1 mg/kg, heading: mean clearance). Besides, the half-life in series [1] (dog, plasma, IV 1 mg/kg) is 7.4 h; in [1] (dog, plasma, PO 3 mg/kg) it was 6.9 h; in series [2] (plasma), 9.36 h; in [3] (plasma), 5.43 h; in series [4] (dog, plasma), 2.9 h; in series [5] it was 15.3 h. Also, the Vd was found to be 1.33 L/kg in [1] (dog, plasma, IV 1 mg/kg, read-out: volume of distribution); 0.986 L/kg in series [2] (setting [8]); 2.74 L/kg in series [3] (setting [8]); 0.546 L/kg in series [4] (dog, plasma, read-out: volume of distribution). This compound also displayed a bioavailability in series [1] (dog, plasma, PO 3 mg/kg) of around 93%. In addition, the Kp uu at 24 h in series [2] (setting [6]) was 24.2; in series [3] (setting [6]), 67.5. Also, the pIC50 on OATP1B1 is 6.92; against OATP1B3, 5.26; on human KHK-C it was 8.05; on human KHK-A, 7.72. Besides, in series [4], the “administered IV dose recovered in bile” value is reported as around 10%. Further, in series [4], the urine levels result was “negligible”.

Turning to `C[C@H]1CCN1c1nc(N2CC(CC(=O)O)C2)cc(C(F)(F)F)c1C#N` [Example 2, 2-[1-[5-cyano-6-[(2S)-2-methylazetidin-1-yl]-4-(trifluoromethyl)-2-pyridyl]azetidin-3-yl]acetic Acid], the pIC50 at human KHK-C was 7.57; on human KHK-A it was 7.43.
